From US20240246905A1 (University of Leicester, priority 2021, published 2024) come the findings set out here.

Read-outs that look alike come from different tables or passages of the source.

The test system of one data set is Escherichia coli DH5α. Description: Disc diffusion (Kirby-Bauer), zone of inhibition. It counts as cell-based. The settings on record: Escherichia coli DH5α, 500 μg/mL, '/' = no zone; for zone of inhibition at 500 µg/mL: read-out: Zone of inhibition. In a few lines: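 Zones of inhibition recorded after 24 h at 37 °C on Mueller-Hinton agar. Agar was inoculated with 1 in 200 diluted 18 h broth cultures, and discs carried 50 μL of antibiotic. Method follows CLSI 2017 disc diffusion.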

For another data set, the system named is MRSA 252 biofilms. The data set can be described thus: Biofilm prevention, crystal violet. The format is cell-based, S. aureus. The settings on record: 50 μg/mL. The procedure: The potential of the lead compounds to both inhibit S. aureus biofilm growth and to disrupt more established biofilms was next investigated. Since previous studies had determined each compounds MIC against planktonic MRSA bacteria, it was hypothesized that a compound concentration of 50 μg/mL (at or above the MIC of all lead compounds except 2) was a reasonable concentration to begin the study.
Prevention: 100 μL of a mixture of TSB supplemented with 0.5% glucose and antibiotic (1:1) was added to individual wells in 96-well plate. The wells were then inoculated with […] an overnight culture of bacteria and incubated at 37° C. for 24 hours. Following the pre-determined length of time, the medium in each well was discarded, washed twice with PBS before 150 μL of a 1% crystal violet solution was added and the plate was left to incubate at room temperature for a further 30 minutes. Each well was then washed a further 4× with PBS before 200 μL 7% acetic acid was added. The absorbance of each well was then measured at OD595.

For another data set, the system named is C. albicans ATCC 90028. The data set can be described thus: Anti-fungal MIC (CO-ADD). It counts as cell-based. The method in brief:
(§1)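 Each yeast inoculum, 1×10^6 to 5×10^6 CFU/mL by OD530, is prepared from YPD-agar colonies grown three days at 30 °C. Incubation lasts 36 hours at 35 °C without agitation, and absorbance relative to on-plate controls defines inhibition.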

The test system of data set [1] is C. deuterogattii ATCC 32609. Description: Anti-fungal MIC (CO-ADD). It counts as cell-based. In a few lines: as §1
The next data set relates to C. glabrata ATCC 90030. Description: Anti-fungal MIC (CO-ADD). It counts as cell-based. The method in brief:
as §1

The subject of data set [2] is C. neoformans H99; ATCC 208821. The data set can be described thus: Anti-fungal MIC (CO-ADD). It counts as cell-based. The method in brief: as §1
The test system of a further data set is C. tropicalis ATCC 750. Description: Anti-fungal MIC (CO-ADD). It counts as cell-based. The method in brief:
as §1

Data set [3] relates to MRSA 252, MSSA 476, S. aureus 15981, P. aeruginosa PA01 and E. coli DH5α. Description: Disc diffusion primary screening, five strains (statements in words). It counts as cell-based. The settings on record: 500 μg/mL. The procedure: As such, the minimum inhibition concentration (MICs) of biologically active compounds were further assessed using the broth dilution method against the S. aureus strains; MRSA 252 and MSSA 476 (Table 1). The results of both assays enabled key structural elements and functional groups required for the compounds to retain their antibiotic activity to be identified.
The antibiotic activity was determined using a Kirby-Bauer method according to Clinical Standard Laboratory Institute (CSLI) Guidelines (2017). Briefly, 180 μL of a 1 in 200 dilution (in LB or TSB) of overnight cultures of selected Gram negative and Gram positive bacteria were applied to an agar plate containing the solid growth medium, Mueller-Hinton agar (MHA). Sterile discs, inoculated with 50 μL of antibiotic, were first added to the agar plate before the plates were incubated for 24 hours at 37° C. Following incubation, the zone of inhibition (if it existed) was recorded.

Data set [4] has as its system late-exponential phase MRSA 252. The data set can be described thus: Time-kill assay. The format is cell-based, S. aureus. The procedure: Investigations into the precise mode of action of these compounds was next studies, with time-kill assays, resistance studies, live-dead stain and morphological analysis of bacteria exposed to the compounds providing an insight into the specific mode of action. Time-kill assays were used to evaluate whether the compounds were bacteriostatic or bactericidal.
The mode of inhibitory action of our novel class of compounds was determined by measuring the decrease in CFU over time. […] The pellets were re-suspended in TSB with the antibiotic added at 2× and 4×MIC and incubated at 37° C. Bacterial suspensions mixed with 1 M saline served as a control. […]

Data set [5] can be described thus: Acid stability in 1M acetic acid (NMR, IR). It counts as physicochemical. The settings on record: 6 hours in 1M acetic acid (pH 2.37). The procedure: Also, well documented in the literature, is the hydrolysis of isocyanide compounds to their corresponding formamide in acidic conditions. Due to the acidic conditions present in the stomach it was important to identify whether the lead compounds might hydrolyse to their corresponding formamide compounds in-vivo. To determine this, Compound 41 was stirred for 6 hours in 1M acetic acid (pH 2.37), mimicking the length of time oral drugs are present in the stomach. The NMR data obtained after 6 hours was identical to that of compound 41 before the assay (FIG. 18). In addition to the NMR, IR analysis further confirmed the presence of the isocyanide group post treatment with acid, as shown by the sharp signal at approximately 2100 cm^−1.

In the next data set the test system is Galleria mellonella. Description: Systemic toxicity, Galleria mellonella survival. The settings on record: n = 10, injection of 500 μg/mL. The procedure: Galleria mellonella wax worms purchased from www.livefoods.co.uk were inoculated with 10 μL of a series of dilutions of the antibiotics synthesised in-house. The antibiotic concentrations chosen for this study were the following: 1000 μg/mL, 500 μg/mL, 250 μg/mL, 125 μg/mL and 31.25 μg/mL. Each dilution was injected into 10 individual wax worms through their last pro-leg. The injected wax worms were stored at 25° C. for 5 days. The cytotoxicity was determined as the percentage survival rate of Galleria mellonella Wax worms after 5 days inoculation.

[6] abbreviates: Candida albicans, ATCC90028, read-out: MIC.
Where [7] appears, read: Nakaseomyces glabratus, ATCC90030, read-out: MIC.
Where [8] appears, read: Cryptococcus neoformans, ATCC208821, read-out: MIC.
Setting [9] is: Candida tropicalis, ATCC750, read-out: MIC.

Consider `[C-]#[N+]C=Cc1ccc(O)cc1` [Compound 2, 4-(2-Isocyanovinyl)phenol], for which the zone of inhibition at 500 µg/mL with Escherichia coli DH5α was 20 mm. Also, the “prevention of MRSA 252 biofilm growth” value in the data set with MRSA 252 biofilms is recorded as “entirely prevented biofilm formation”.

Take `[C-]#[N+]C=Cc1cc(Br)ccc1O` [Compound 13]: the MIC in the data set with C. albicans ATCC 90028 (setting [6]) is 4 to 8 mg/L; in data set [1] (read-out: MIC) it was 4 mg/L; in the data set with C. glabrata ATCC 90030 (setting [7]), more than 32 mg/L; in [2] (setting [8]), 4 to 8 mg/L; in the data set on C. tropicalis ATCC 750 (setting [9]), 16 mg/L.

`[C-]#[N+]C=Cc1ccc(O)c(Br)c1` [Compound 14]: the zone of inhibition at 500 µg/mL with Escherichia coli DH5α stood at 26 mm. Besides, the MIC is 32 mg/L in the data set with C. albicans ATCC 90028 (setting [6]); 32 mg/L in data set [1] (read-out: MIC); more than 32 mg/L with C. glabrata ATCC 90030 (setting [7]); more than 32 mg/L in [2] (setting [8]); more than 32 mg/L with C. tropicalis ATCC 750 (setting [9]).

As to `[C-]#[N+]/C=C/c1ccc(O)cc1/C=C/c1ccccc1` [Compound 36, 4-((E Z)-2-Isocyanovinyl)-3-((E)-styryl)phenol], in [3], the “antibiotic activity in disc diffusion assays (in words)” value was “retained antibiotic activity”. Besides, the MIC was 16 mg/L in the data set on C. albicans ATCC 90028 (setting [6]); 2 mg/L in data set [1] (read-out: MIC); 32 mg/L with C. glabrata ATCC 90030 (setting [7]); 4 to 8 mg/L in data set [2] (setting [8]); 32 mg/L in the data set on C. tropicalis ATCC 750 (setting [9]).

On to `[C-]#[N+]/C=C/c1ccc(NC(C)=O)cc1/C=C/c1ccccc1` [Compound 41, N-(4-((E)-2-Isocyanovinyl)-3-((E)-styryl)phenyl)acetamide], for which the zone of inhibition at 500 µg/mL in the data set with Escherichia coli DH5α stood at 20 mm. In [3], the “antibiotic activity in disc diffusion assays (in words)” value is given as “excellent activity against all three S. aureus strains, as well as P. aeruginosa PAO1”. The MIC is 2 to 4 mg/L with C. albicans ATCC 90028 (setting [6]); 1 to 2 mg/L in [1] (read-out: MIC); 32 mg/L in the data set on C. glabrata ATCC 90030 (setting [7]); 2 mg/L in data set [2] (setting [8]); 32 mg/L in the data set with C. tropicalis ATCC 750 (setting [9]). The “reduction in bacterial density” value in data set [4] (20 hours exposure, 2×MIC, MRSA 252 in TSB) is 4 log. The bacteriostatic or bactericidal entry in data set [4] (late-exponential phase MRSA 252) was “bactericidal activity”. In addition, in data set [5], the “NMR data after acid exposure” value was “identical”.

The compound “(2-Isocyanovinyl)-4-acetaamido benzene [Compound 22]” had a Zone of inhibition with Escherichia coli DH5α of 20 mm. In addition, the “% survival after 5 days” value in the data set with Galleria mellonella came to 70%. For the same compound, the MIC with C. albicans ATCC 90028 was 16 mg/L; in [1], more than 32 mg/L; with C. glabrata ATCC 90030 it was more than 32 mg/L; in data set [2], more than 32 mg/L; in the data set with C. tropicalis ATCC 750, more than 32 mg/L.
